Earlier results as cited in patent US20060216350A1, “Ganglionic blocking agents for the treatment of epithelial diseases” (priority 2005, published 2006).

System: hand warts
Conditions: patients with hand warts; Sterling et al. 2001

In the case of `O=C(O)c1ccccc1O` [Salicylic acid], the “clearance of warts, % of patients” value is given as 67%.
